Data reported in PubChem BioAssay AID294 (DTP/NCI, 2004).
Several values for one entry are separate records, joined by “and”; a condition that tells them apart may be missing. Identical values can stand only once.

System: MX-1 breast xenograft, nude mice, tumor weight change
Experiment: NCI In Vivo Anticancer Drug Screen. Data for tumor model Human Mammary Carcinoma MX-1 Xenograft (subcutaneous) in NU/NU Swiss (nude) mice
Details: endpoint: optimum tumor weight change, higher = larger tumour
Experimental: The antitumor activity of compounds was measured in mice bearing transplantable tumors. Survival or tumor size were measured and the results are expressed as the measurement made in the treated group (T) divided by the measurement made in the vehicle treated control group (C). The tumor model used in this assay is Human Mammary Carcinoma MX-1 Xenograft (subcutaneous) in NU/NU Swiss (nude) mice

[1] = dose: 100.0 mg/kg/injection, schedule: Q04DX003 (ip), vehicle: Klucel (hydroxypropylcellulose) (HPC)
[2] = dose: 50.0 mg/kg/injection, schedule: Q04DX003 (ip), vehicle: Klucel (hydroxypropylcellulose) (HPC)
[3] = dose: 100.0 mg/kg/injection, schedule: Q04DX003 (ip), vehicle: suspension in saline
[4] = dose: 200.0 mg/kg/injection, schedule: Q04DX003 (ip), vehicle: suspension in saline
[5] = dose: 200.0 mg/kg/injection, schedule: Q04DX003 (ip), vehicle: saline
[6] = dose: 5.0 mg/kg/injection, schedule: Q04DX003 (ip), vehicle: Klucel (hydroxypropylcellulose) (HPC)
[7] = dose: 10.0 mg/kg/injection, schedule: Q04DX003 (ip), vehicle: Klucel (hydroxypropylcellulose) (HPC)
[8] = dose: 400.0 mg/kg/injection, schedule: Q04DX003 (ip), vehicle: suspension in saline
[9] = dose: 100.0 mg/kg/injection, schedule: Q04DX003 (ip), vehicle: saline with Tween-80
[10] = dose: 50.0 mg/kg/injection, schedule: Q04DX003 (ip), vehicle: saline
[11] = dose: 100.0 mg/kg/injection, schedule: Q04DX003 (ip), vehicle: saline
[12] = dose: 800.0 mg/kg/injection, schedule: Q04DX003 (ip), vehicle: suspension in saline
[13] = dose: 12.5 mg/kg/injection, schedule: Q04DX003 (ip), vehicle: saline
[14] = dose: 25.0 mg/kg/injection, schedule: Q04DX003 (ip), vehicle: saline

CC[C@](O)(C(=O)O)c1cc2n(c(=O)c1CO)Cc1cc3ccccc3nc1-2
T/C (dose: 4.5 mg/kg/injection, schedule: Q04DX003 (ip), vehicle: saline): 122 % of control
T/C (dose: 9.0 mg/kg/injection, schedule: Q04DX003 (ip), vehicle: saline): 97 % of control
T/C (dose: 16.0 mg/kg/injection, schedule: Q04DX003 (ip), vehicle: saline): 44 % of control
T/C (dose: 18.0 mg/kg/injection, schedule: Q04DX003 (ip), vehicle: saline): 59 % of control
T/C (dose: 36.0 mg/kg/injection, schedule: Q04DX003 (ip), vehicle: saline): 70 % of control

O=C(NO)c1ccccc1
T/C (dose: 25.0 mg/kg/injection, schedule: Q01DX003 (ip), vehicle: saline): 82 % of control
T/C (dose: 50.0 mg/kg/injection, schedule: Q01DX003 (ip), vehicle: saline): 108 % of control
T/C (dose: 100.0 mg/kg/injection, schedule: Q01DX003 (ip), vehicle: saline): 42 % of control

CCOC(=O)C1C2OC(=O)C(C(=O)C2CN(CCCl)CCCl)C1C1CC=C(CC2=CCC(C3C4C(=O)OC(C(CN(CCCl)CCCl)C4=O)C3C(=O)OCC)CC2)CC1 (stereo not given)
T/C (dose: 25.0 mg/kg/injection, schedule: Q04DX003 (ip), vehicle: Klucel (hydroxypropylcellulose) (HPC)): 58 % of control
T/C [1]: 35 % of control

CN(CO)c1nc(N(C)CO)nc(N(C)CO)n1
T/C (dose: 25.0 mg/kg/injection, schedule: Q01DX005 (ip), vehicle: saline): 3 % of control and 16 % of control
T/C (dose: 25.0 mg/kg/injection, schedule: Q04DX005 (ip), vehicle: saline): 45 % of control and 58 % of control
T/C (dose: 50.0 mg/kg/injection, schedule: Q01DX005 (ip), vehicle: saline): -7 % of control and 4 % of control
T/C (dose: 100.0 mg/kg/injection, schedule: Q01DX005 (ip), vehicle: saline): -97 % of control and -91 % of control
T/C (dose: 100.0 mg/kg/injection, schedule: Q07DX005 (ip), vehicle: saline): 24 % of control and 28 % of control
T/C (dose: 200.0 mg/kg/injection, schedule: Q01DX005 (ip), vehicle: saline): -94 % of control
T/C (dose: 200.0 mg/kg/injection, schedule: Q04DX005 (ip), vehicle: saline): -87 % of control and -82 % of control
T/C (dose: 200.0 mg/kg/injection, schedule: Q07DX005 (ip), vehicle: saline): -96 % of control

CC(=O)OCC(=O)[C@@]12OC(C)(C)O[C@@H]1C[C@H]1[C@@H]3CC(C=O)=C4C=C(OCCCl)CC[C@]4(C)[C@@]3(F)[C@@H](O)C[C@@]12C
T/C [2]: 54 % of control

Nc1nc(N)c2cc(CNc3ccc(C(=O)NC(CC(=O)O)CC(=O)O)cc3)ccc2n1
T/C [2]: 75 % of control
T/C [1]: 49 % of control

C=CC(=O)NCNC(=O)C=C
T/C [3]: 101 % of control
T/C [4]: 84 % of control

O=CC(S)CO (stereo not given)
T/C [5]: 61 % of control

NC(Cc1ccc(N(CCCl)CCCl)cc1)C(=O)O (stereo not given)
T/C (dose: 2.5 mg/kg/injection, schedule: Q04DX003 (ip), vehicle: Klucel (hydroxypropylcellulose) (HPC)): 49 % of control
T/C [6]: 15 % of control
T/C [7]: -69 % of control and -81 % of control

CC(CN1CC(=O)NC(=O)C1)N1CC(=O)NC(=O)C1 (stereo not given)
T/C [3]: 65 % of control
T/C [4]: 73 % of control
T/C [8]: 55 % of control

CC(=O)OCC1OC(n2cc(CBr)nn2)C(OC(C)=O)C(OC(C)=O)C1OC(C)=O (stereo not given)
T/C (dose: 25.0 mg/kg/injection, schedule: Q04DX003 (ip), vehicle: saline with Tween-80): 119 % of control
T/C (dose: 50.0 mg/kg/injection, schedule: Q04DX003 (ip), vehicle: saline with Tween-80): 150 % of control
T/C [9]: 57 % of control

N=C(N)Sc1ccccn1
T/C [10]: 106 % of control
T/C [11]: 77 % of control
T/C [5]: 60 % of control

CC1OC(OC2CC(O)(C(=O)CO)Cc3c(O)c4c(c(O)c32)C(=O)c2ccccc2C4=O)CC(N)C1O (stereo not given)
T/C (dose: 0.25 mg/kg/injection, schedule: Q04DX003 (ip), vehicle: water): 104 % of control
T/C (dose: 0.5 mg/kg/injection, schedule: Q04DX003 (ip), vehicle: water): 104 % of control

CNC=O
T/C [5]: 7 % of control and 29 % of control
T/C (dose: 400.0 mg/kg/injection, schedule: Q04DX003 (ip), vehicle: saline): -1 % of control and 17 % of control
T/C (dose: 800.0 mg/kg/injection, schedule: Q04DX003 (ip), vehicle: saline): -12 % of control
T/C (dose: 1600.0 mg/kg/injection, schedule: Q04DX003 (ip), vehicle: saline): -64 % of control

CC(=O)OCC1OC(n2ccc(N)nc2=O)C(OC(C)=O)C1OC(C)=O (stereo not given)
T/C [3]: 60 % of control
T/C [4]: 62 % of control
T/C [8]: 39 % of control
T/C [12]: 39 % of control

CNC(=O)ON(C(C)=O)C(=O)NC
T/C [13]: 81 % of control
T/C [14]: 108 % of control

O=NN(CCCl)C(=O)NC1CCCCC1
T/C (dose: 12.5 mg/kg/injection, schedule: Q04DX003 (ip), vehicle: Klucel (hydroxypropylcellulose) (HPC)): 75 % of control

CN1CCN(CCCN2c3ccccc3Sc3ccc(C(F)(F)F)cc32)CC1
T/C [10]: 58 % of control

NC(=O)c1ccc[n+](Cc2c(Cl)cccc2Cl)c1
T/C (dose: 3.0 mg/kg/injection, schedule: Q04DX003 (ip), vehicle: saline): 169 % of control
T/C (dose: 24.0 mg/kg/injection, schedule: Q04DX003 (ip), vehicle: saline): 111 % of control and 112 % of control
T/C (dose: 96.0 mg/kg/injection, schedule: Q04DX003 (ip), vehicle: saline): 100 % of control

CN(N=O)C(=O)N[C@@H](C=O)[C@@H](O)[C@H](O)[C@H](O)CO
T/C [11]: 58 % of control
T/C [5]: 80 % of control

ClCC[N+]12CC[N+](CCCl)(CC1)C2
T/C [9]: 60 % of control
T/C (dose: 200.0 mg/kg/injection, schedule: Q04DX003 (ip), vehicle: saline with Tween-80): 56 % of control
T/C (dose: 200.0 mg/kg/injection, schedule: Q04DX003 (ip), vehicle: water): 51 % of control
T/C (dose: 400.0 mg/kg/injection, schedule: Q04DX003 (ip), vehicle: saline with Tween-80): 59 % of control
T/C (dose: 400.0 mg/kg/injection, schedule: Q04DX003 (ip), vehicle: water): 53 % of control
T/C (dose: 800.0 mg/kg/injection, schedule: Q04DX003 (ip), vehicle: saline with Tween-80): 31 % of control
T/C (dose: 1600.0 mg/kg/injection, schedule: Q04DX003 (ip), vehicle: saline with Tween-80): 28 % of control

Cc1c(N)nc(C(CC(N)=O)NCC(N)C(N)=O)nc1C(=O)NC(C(=O)NC(C)C(O)CC(=O)NC(C(=O)NC(OC1OC(C)C(N)C(O)C1O)C(O)c1nc(-c2nc(C(=O)NCCCC(N)CC(=O)NCCCNCCCCN)cs2)cs1)C(C)O)C(OC1OC(CO)C(O)C(O)C1OC1OC(CO)C(O)C(OC(N)=O)C1O)c1cnc[nH]1 (stereo not given)
T/C (dose: 4.0 mg/kg/injection, schedule: Q04DX003 (ip), vehicle: saline): 28 % of control
T/C (dose: 8.0 mg/kg/injection, schedule: Q04DX003 (ip), vehicle: saline): 11 % of control

N/C(=N\O)c1cn(C2OC(CO)C(O)C2O)c2ncnc(N)c12 (stereo not given)
T/C [6]: 109 % of control
T/C [7]: 80 % of control
T/C (dose: 20.0 mg/kg/injection, schedule: Q04DX003 (ip), vehicle: Klucel (hydroxypropylcellulose) (HPC)): 82 % of control

OCC1OC(n2cnc3cncnc32)C(O)C1O (stereo not given)
T/C [13]: 88 % of control
T/C [14]: 94 % of control
T/C [10]: 108 % of control

CO[C@H]1C[C@](C)(O)Cc2cc3c(c(O)c21)C(=O)c1c(O)cc2c(c1C3=O)O[C@@H]1O[C@@]2(C)[C@H](O)[C@@H](N(C)C)[C@@H]1O
T/C (dose: 6.25 mg/kg/injection, schedule: Q04DX003 (ip), vehicle: other): 169 % of control
T/C (dose: 12.5 mg/kg/injection, schedule: Q04DX003 (ip), vehicle: other): 165 % of control

CN(C)C=O
T/C [8]: 44 % of control
T/C [12]: 53 % of control
T/C (dose: 1600.0 mg/kg/injection, schedule: Q04DX003 (ip), vehicle: suspension in saline): 57 % of control

CC(C)=CCNc1ncnc2c1ncn2C1OC(CO)C(O)C1O (stereo not given)
T/C [4]: 39 % of control
T/C [8]: 77 % of control

COC1C(O)CC(OC2CC(OC3CC(O[C@@H]4C(=O)c5c(cc6cc(OC7CC(OC8CC(O)C(O)C(C)O8)C(O)C(C)O7)c(C)c(O)c6c5O)C[C@H]4[C@H](OC)C(=O)[C@@H](O)[C@@H](C)O)OC(C)C3O)OC(C)C2O)OC1C (stereo not given in full)
T/C (dose: 0.75 mg/kg/injection, schedule: Q04DX003 (ip), vehicle: saline): 90 % of control and 95 % of control

O=[N+]([O-])/C=C\c1ccc2c(c1)OCO2
T/C [2]: 83 % of control
T/C (dose: 200.0 mg/kg/injection, schedule: Q04DX003 (ip), vehicle: Klucel (hydroxypropylcellulose) (HPC)): 81 % of control
